Test results reported in US8785493B2, “Treatment of retroviral reservoirs exploiting oxidative stress” (Istituto Superiore di Sanita, priority 2008, dated 2014).
pIC50: −log10 of the molar value. Where two headings read alike, the source gives them in different places.

Columns and labels:
[1] = system: HIV-1 LTR in Jurkat A1 cells; assay type: cell-based
[2] = system: HIV-1 replication in latently HIV-1 infected lymphocytic ACH-2 cells; assay type: cell-based; conditions: for Induction of HIV-1 replication by the agent alone, ACH-2 cells: data not shown
[3] = system: HIV-1 replication in latently HIV-1 infected monocytoid U1 cells; assay type: cell-based
[4] = system: Non-infected H9 and U937, HIV-1 infected H9IIIB, ACH-2 and U1 cells; assay: Selective killing, MTT cell viability, infected versus non-infected cells; assay type: cell-based; conditions: seven days
Text: Cell viability assay. Cell viability was quantitated using the highly standardised methyl tetrazolium (MTT) procedure (described in detail in: Savarino A, Calosso L, Piragino A, Martini C, Gennero L, Pescarmona G P, Pugliese A. Modulation of surface transferrin receptors in lymphoid cells de novo infected with human immunodeficiency virus type-1. Cell Biochem Funct. 1999 March; 17(1):47-55). Absorbance values were generated at a wavelength of 450 nm using 96-well ELISA readers and subtracted of the blank values using cell culture media in the absence of cells. Cell viability in the presence of the test compounds was expressed as a percentage of the cell viability of control untreated cell cultures. For testing of selective killing, Non-infected H9, and U937, and HIV-1 infected HIIIB, ACH-2, and U1 cells were incubated with the test compounds for seven days, and cell viability was measured as described above.

Maize HD1-B = Maize HD1-B (Zea mays, UniProt Q9ZTP8); assay: Maize HD1-B enzyme inhibition in vitro; assay type: biochemical
Chain of Maize HD1-B (Q9ZTP8 entry or part of it): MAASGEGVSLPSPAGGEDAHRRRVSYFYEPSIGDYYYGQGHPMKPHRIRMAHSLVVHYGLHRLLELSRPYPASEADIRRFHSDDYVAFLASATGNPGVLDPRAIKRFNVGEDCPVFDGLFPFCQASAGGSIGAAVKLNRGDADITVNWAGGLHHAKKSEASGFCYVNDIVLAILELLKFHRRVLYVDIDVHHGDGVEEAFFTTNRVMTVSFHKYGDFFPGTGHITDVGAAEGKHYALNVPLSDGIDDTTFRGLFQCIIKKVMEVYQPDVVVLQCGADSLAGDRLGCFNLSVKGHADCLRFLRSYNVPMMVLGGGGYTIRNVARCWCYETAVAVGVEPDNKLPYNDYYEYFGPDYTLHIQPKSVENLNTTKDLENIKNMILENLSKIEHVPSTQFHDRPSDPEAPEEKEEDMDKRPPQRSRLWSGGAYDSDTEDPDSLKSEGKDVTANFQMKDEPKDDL
Experimental: (§1) Maize HD2, HD1-B, and HD1-A Enzyme Inhibition in Vitro. Radioactively labelled chicken core histones were used as the enzyme substrate according to established procedures [referenced in: Mai et al., 2006]. The enzyme liberated tritiated acetic acid from the substrate, which was quantified by scintillation counting. The IC50 values are the results of triple determinations. A 50 μL sample of maize enzyme (at 30° C.) was incubated (30 min) with 10 microL of total [^3H]acetate-prelabelled chicken reticulocyte histones (2 mg/mL). The reaction was stopped by the addition of 36 microL of 1 M HCl/0.4 M acetate and 800 microL of ethyl acetate. After centrifugation (10 000 g, 5 min), an aliquot of 600 microL of the upper phase was counted for radioactivity in 3 mL of liquid scintillation cocktail. The compounds were tested at a starting concentration of 40 microM, and active substances were diluted further. TSA and SAHA were used as the reference compounds, and blank solvents were used as negative controls [Mai et al. 2006].

mouse HDAC1 = mouse HDAC1 (Mus musculus, UniProt O09106); assay: Mouse HDAC1 enzyme assay; assay type: biochemical
Chain of mouse HDAC1 (O09106 whole entry): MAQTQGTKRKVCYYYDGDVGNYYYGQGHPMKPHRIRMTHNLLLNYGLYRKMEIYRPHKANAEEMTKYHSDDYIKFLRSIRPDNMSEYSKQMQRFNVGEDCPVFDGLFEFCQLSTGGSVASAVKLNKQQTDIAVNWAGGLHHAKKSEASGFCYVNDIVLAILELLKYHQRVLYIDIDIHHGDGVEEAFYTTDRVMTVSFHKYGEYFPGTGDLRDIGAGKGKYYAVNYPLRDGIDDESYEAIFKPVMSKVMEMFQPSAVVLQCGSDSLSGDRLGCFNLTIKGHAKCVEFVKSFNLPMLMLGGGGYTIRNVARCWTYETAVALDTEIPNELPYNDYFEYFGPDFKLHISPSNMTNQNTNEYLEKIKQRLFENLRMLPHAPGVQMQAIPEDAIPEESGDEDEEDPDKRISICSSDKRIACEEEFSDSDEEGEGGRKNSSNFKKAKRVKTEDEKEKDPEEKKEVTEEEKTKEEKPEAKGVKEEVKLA
Experimental: Mouse HDAC1 Enzyme Assay. […] HDAC activity was determined using [^3H]acetate-prelabelled chicken reticulocyte histones as the substrate. Mouse HDAC1 (50 microL) was incubated with different concentrations of compounds for 15 min on ice, and 10 μL of total [^3H]acetate-prelabelled chicken reticulocyte histones (2 mg/mL) were added, resulting in a concentration of 41 microM. The mixture was incubated at 37° C. for 1 h. The reaction was stopped by the addition of 50 microL of 1 M HCl/0.4 M acetylacetate and 1 mL ethyl acetate. After centrifugation at 10 000 g for 5 min, an aliquot of 600 microL of the upper phase was counted for radioactivity in a 3 mL liquid scintillation cocktail [Mai et al., 2006].

Maize HD1-A = Maize HD1-A (Zea mays, UniProt Q7XAX9); assay: Maize HD1-A enzyme inhibition in vitro; assay type: biochemical
Chain of Maize HD1-A (Q7XAX9 entry or part of it): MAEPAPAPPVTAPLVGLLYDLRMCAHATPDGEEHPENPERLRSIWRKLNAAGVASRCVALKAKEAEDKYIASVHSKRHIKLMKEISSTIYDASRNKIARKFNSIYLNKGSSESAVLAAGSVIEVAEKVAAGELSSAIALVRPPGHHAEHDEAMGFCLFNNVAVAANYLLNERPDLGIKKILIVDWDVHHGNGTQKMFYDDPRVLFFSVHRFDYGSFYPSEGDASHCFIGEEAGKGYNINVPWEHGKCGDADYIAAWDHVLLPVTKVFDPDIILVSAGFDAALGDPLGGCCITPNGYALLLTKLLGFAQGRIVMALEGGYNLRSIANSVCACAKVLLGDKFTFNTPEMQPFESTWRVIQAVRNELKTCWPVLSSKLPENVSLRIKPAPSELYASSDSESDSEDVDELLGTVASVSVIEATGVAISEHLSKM
Experimental: as §1

IP HDAC4 = IP HDAC4 (Homo sapiens, UniProt P56524); assay type: biochemical
Chain of IP HDAC4 (P56524 whole entry): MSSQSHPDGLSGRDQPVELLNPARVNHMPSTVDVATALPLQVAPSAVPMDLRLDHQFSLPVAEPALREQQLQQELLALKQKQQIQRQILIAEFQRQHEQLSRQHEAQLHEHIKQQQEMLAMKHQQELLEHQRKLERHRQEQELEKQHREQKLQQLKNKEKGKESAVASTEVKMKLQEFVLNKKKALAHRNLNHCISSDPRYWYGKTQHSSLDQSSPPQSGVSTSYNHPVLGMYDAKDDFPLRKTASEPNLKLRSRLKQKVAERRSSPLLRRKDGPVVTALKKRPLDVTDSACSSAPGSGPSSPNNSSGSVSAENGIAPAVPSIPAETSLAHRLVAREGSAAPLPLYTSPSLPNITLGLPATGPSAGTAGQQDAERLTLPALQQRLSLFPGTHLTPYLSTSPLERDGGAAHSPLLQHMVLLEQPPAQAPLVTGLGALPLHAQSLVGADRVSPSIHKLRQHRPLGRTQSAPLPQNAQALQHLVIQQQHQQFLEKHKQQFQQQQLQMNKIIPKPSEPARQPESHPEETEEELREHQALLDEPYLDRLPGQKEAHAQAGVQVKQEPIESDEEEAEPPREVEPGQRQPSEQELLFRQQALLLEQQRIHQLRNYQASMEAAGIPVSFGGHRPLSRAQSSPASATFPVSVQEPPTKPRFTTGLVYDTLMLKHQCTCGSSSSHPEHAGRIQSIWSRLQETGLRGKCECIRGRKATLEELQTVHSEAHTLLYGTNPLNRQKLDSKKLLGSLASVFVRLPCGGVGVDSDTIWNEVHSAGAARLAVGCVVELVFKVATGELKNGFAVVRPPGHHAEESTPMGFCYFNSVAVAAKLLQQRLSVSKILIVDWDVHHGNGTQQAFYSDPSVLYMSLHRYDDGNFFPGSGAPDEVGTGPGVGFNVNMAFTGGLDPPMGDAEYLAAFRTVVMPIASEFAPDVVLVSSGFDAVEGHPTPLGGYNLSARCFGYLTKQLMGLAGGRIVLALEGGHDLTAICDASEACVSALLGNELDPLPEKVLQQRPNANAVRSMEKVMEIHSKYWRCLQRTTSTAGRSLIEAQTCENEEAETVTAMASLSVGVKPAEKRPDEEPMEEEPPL
Experimental: (§2) Cell-Based Human HDAC1 and HDAC4 Assays. […] Then, 1000 micrograms of extracts were diluted in IP buffer up to 1 mL and pre-cleared by incubating with 20 microL of A/G plus Agarose (Santa Cruz) for 30 min to 1 h on a rocking table at 4° C. Supernatants were transferred into a new tube, and the antibodies (around 3 to 4 μg) were added and IP was allowed to proceed overnight at 4° C. on a rocking table. The antibodies used were HDAC1 (Abcam) and HDAC4 (Sigma). As the negative control, the same amount of protein extracts were immunoprecipitated with the corresponding purified IgG (Santa Cruz). On the next day, 20 microL of A/G and Agarose (Santa Cruz) were added to each IP, and incubation was continued for 2 h. The beads were recovered by brief centrifugation and washed with cold IP buffer several times. The samples were than washed twice in PBS and re-suspended in 20 microL of sterile PBS. The HDAC assay was carried out according to the supplier's instructions (Upstate). Briefly, samples immunoprecipitated with the HDAC4 and HDAC1 or with purified IgG were pooled separately to homogenise all samples. Then, 10 microL of the IP was incubated with a previously labelled ^3H-Histone H4 peptide linked with streptavidine agarose beads (Upstate). In detail, 120 000 CPM of the H4-^3H-acetyl-peptide was used for each tube and incubated in 1 HDAC buffer with 10 microL of the sample in the presence or absence of HDAC inhibitors with a final volume of 200 μL. Those samples were incubated overnight at 37° C. in slow rotation. On the next day, 50 μL of a quenching solution was added, and 100 microL of the samples were counted in duplicate after brief centrifugation in a scintillation counter.

IP HDAC1 = IP HDAC1 (Homo sapiens, UniProt Q13547); assay: Human HDAC1 assay on immunoprecipitate (IP) from U937 cells; assay type: biochemical
Chain of IP HDAC1 (Q13547 whole entry): as the sequence (O09106 whole entry) above, with K8R, E399D, D424E counted along it
Experimental: as §2

HDACs = assay: HDAC class selectivity (HDACs inhibited); assay type: biochemical; conditions: Class 1 selective or NS (non-selective)
latent HIV-1 = conditions: cited from earlier work
[5] = system: HIV-1 LTR in quiescently infected Jurkat 8.4 cells; assay: HIV-1 LTR-controlled GFP expression, flow cytometry, Jurkat clone 8.4; assay type: cell-based; conditions: for LTR-controlled GFP expression, Jurkat 8.4 cells: 72 h, gated live cells
[6] = system: NF-kappaB (p65/p50) in Jurkat 8.4 cells; assay: NF-kappaB nuclear translocation, colorimetric p65 assay; assay type: cell-based; set-up: dose or concentration left out as unconfirmed; conditions: auranofin, different incubation times, relative to TNF-alpha 1.5 h
Experimental: Detection of NF-kappaB nuclear translocation. Nuclear extracts from control Jurkat 8.4 cells and cells treated with auranofin at different times of incubation were obtained using a nuclear extraction kit (Chemicon International), following the Manufacturer's instructions. NF-kappaB nuclear translocation was detected using a colorimetric transcription factor assay (Millipore) for the p65 subunit. Results were expressed as a percentage of the signal obtained in cells incubated with the potent NF-kappaB stimulating cytokine TNF-alpha (5 ng/ml) for 1.5 h, at which the peak of nuclear translocation of NF-kappaB is reached.

our cell lines = assay: Toxicity of auranofin to the cell lines used; assay type: cell-based; conditions: concentrations approx. two orders of magnitude superior to those of the present study, data not shown
Text: Cell viability assay. Cell viability was quantitated using the methyl tetrazolium (MTT) procedure. Absorbance values were generated at a wavelength of 550 nm using 96-well ELISA readers and subtracted of the blank values using cell culture media in the absence of cells. Cell viability in the presence of the test compounds was expressed as a percentage of the cell viability of control untreated cell cultures.

Row | Compound | pIC50 (Maize HD1-B) | pIC50 (mouse HDAC1) | pIC50 (Maize HD1-A) | inhibition at 5 µM (IP HDAC4) [%] | inhibition at 5 µM (IP HDAC1) [%] | HDACs inhibited (HDACs) | other results
1 | CCCCS(=N)(=O)CCC(N)C(=O)O (stereo not shown) [BSO, buthionine sulfoximine] | – | – | – | – | – | – | GFP expression in combination with HDACi (MS-275), Jurkat A1 cells ([1]; 72 h): recruited HDACi-insensitive cells into the responding cell population; LTR-controlled GFP expression, Jurkat A1 cells ([1]; 72 h): induced LTR activation in a small proportion of cells; Induction of HIV-1 replication by the agent alone, ACH-2 cells ([2]; concentrations up to 500 μM): had no effect; Induction of HIV-1 replication by the agent alone, ACH-2 cells [2]: did not significantly induce HIV-1 replication; Induction of HIV-1 replication by the agent alone, U1 cells ([3]; data not shown): did not significantly induce HIV-1 replication
2 | O=C([O-])CN(CC(=O)[O-])CC(=O)[O-].[Fe+3] [FeNTA, iron nitriloacetate] | – | – | – | – | – | – | Induction of HIV-1 replication by the agent alone, ACH-2 cells [2]: dose-dependently induced HIV-1 replication
3 | O=C(/C=C/c1ccc(NC(=O)C(c2ccccc2)c2ccccc2)cc1)NO [MC 1855] | 6.79 | 6.89 | 7.26 | 0 | 78.7 | Class 1 | Selective killing of HIV-1 infected cells versus uninfected counterparts [4]: selective killing of HIV-1-infected cells
4 | CC(C(=O)Nc1ccc(/C=C/C(=O)NO)cc1)c1ccccc1 (stereo not shown) [MC 1857] | 7.14 | 6.54 | 7.10 | – | 79.3 | – | –
5 | CCC(C(=O)Nc1ccc(/C=C/C(=O)NO)cc1)c1ccccc1 (stereo not shown) [MC 1864] | 7.05 | 6.52 | 7.19 | 60.4 | 55 | – | –
6 | O=C(/C=C/c1ccc(NC(=O)C(Cc2ccccc2)c2ccccc2)cc1)NO (stereo not shown) [MC 1895, 3-[4-(2,3-Diphenylpropionylamino)phenyl]-N-hydroxy-2-propenamide] | 6.88 | 7.08 | 7.13 | 16.1 | 72.5 | Class 1 | –
7 | CCC(C(=O)Nc1ccc(/C=C/C(=O)NO)cc1)c1cccc2ccccc12 (stereo not shown) [MC 2111] | 7.24 | 6.21 | 7.38 | 0 | 73.6 | Class 1 | –
8 | CCC(C(=O)Nc1ccc(/C=C/C(=O)NO)cc1)c1ccc2ccccc2c1 (stereo not shown) [MC 2113] | 7.21 | 6.25 | 7.16 | 22.4 | 64.9 | Class 1 | –
9 | CC(C)C(C(=O)Nc1ccc(C(=O)NO)cn1)c1ccccc1 (stereo not shown) [MC 2195] | 7.96 | 7.16 | 8.10 | 93.1 | 46.7 | Class 1 | –
10 | Nc1ccccc1NC(=O)c1ccc(CNC(=O)OCc2cccnc2)cc1 [MS 275] | – | – | – | – | 65.4 | Class 1 | Concentration range of activity in inducing HIV-1 escape from latency, ACH-2 cells ([2]; day 3, concentration-response 0.001-1 μM): nanomolar range; Combined HIV-1 promoting effect of HDACi with BSO, ACH-2 cells ([2]; percentage-of-synergism graph, three days): synergistic effect; Concentration range of activity in inducing HIV-1 escape from latency, U1 cells ([3]; not shown): nanomolar range
11 | O=C(CCCCCCC(=O)Nc1ccccc1)NO [SAHA, suberoylanilide hydroxamic acid] | – | – | – | – | – | – | LTR-controlled GFP expression, Jurkat A1 cells ([1]; 72 h): induction of LTR-controlled expression of green-fluorescent protein (GFP)
12 | CCCC(CCC)C(=O)O [VA, valproic acid] | – | – | – | – | – | – | EC50, HIV-1 escape from latency (latent HIV-1): millimolar range
13 | N.N.[Cl][Pt][Cl] [cisplatin] | – | – | – | – | – | – | Concentration range activating latent HIV-1 ([1]; cell line models for HIV-1 latency): nanomolar range; Concentration range activating quiescent HIV-1 (latent HIV-1; Spandidos et al., 1990): micromolar
14 | arsenic trioxide | – | – | – | – | – | – | LTR-controlled GFP expression, Jurkat A1 cells ([1]; 72 h): increased in response to arsenic trioxide in a concentration-dependent manner; LTR-controlled GFP expression, Jurkat 8.4 cells [5]: dose-dependent shift in fluorescence
15 | gold(1+); 3,4,5-triacetyloxy-6-(acetyloxymethyl)oxane-2-thiolate; triethylphosphanium [auranofin] | – | – | – | – | – | – | NF-kappaB (p65) in nuclear extracts [6]: time-dependent NF-kappaB accumulation within the nuclei; LTR-controlled GFP expression, Jurkat A1 cells ([1]; 72 h): induction of LTR-controlled expression of green-fluorescent protein (GFP); LTR-controlled GFP expression, Jurkat 8.4 cells [5]: dose-dependent shift in fluorescence; GFP expression in combination with HDACI (MC2113), Jurkat 8.4 cells ([5]; auranofin 0.25 microM plus MC2113 1 microM): recruited the HDACi-unresponsive cells into the responding cell population; Effect on HIV-1 replication (p24), ACH-2 cells ([2]; 0.125-0.5 μM, 24 h and 72 h): increased HIV-1 replication in a time- and dose-dependent manner; Combined HIV-1 activating effect with BSO, ACH-2 cells ([2]; auranofin plus BSO, percentage-of-synergism surface, three days): synergistic HIV-1 activating effects; Combined HIV-1 activating effect with FeNTA, ACH-2 cells ([2]; percentage-of-synergism surface, three days): synergistic HIV-1 activating effects; Effect on HIV-1 replication (p24), U1 cells ([3]; 0.125-0.5 μM, 24 h and 72 h): increased HIV-1 replication in a time- and dose-dependent manner; Combined HIV-1 activating effect with MC2113, U1 cells ([3]; auranofin 0.25 μM plus MC2113 1 μM, 24 h): synergistic; Toxicity to cell lines (our cell lines): toxic to our cell lines
